Assay results taken from patent publication US20190060428A1, “FORMULATIONS FOR NEOPLASIA VACCINES AND METHODS OF PREPARING THEREOF” (The Broad Institue Inc., priority 2015, published 2019).
Where “and” joins values, the source holds several entries; their conditions need not be identical. Equal values may be shown once.

What was measured:
[1] = pH of peptide solutions in DMSO/D5W, with succinate, and with Hiltonol; format: physicochemical
[2] = Short-term room temperature stability of Pool 3 mixed with Hiltonol (RP-HPLC); format: physicochemical
Description: A peptide pool (Pool 3) consisting of the five peptides shown in Table 6 below was prepared by dissolution in DMSO and dilution with D5W/Succinate (2 mM) to 2 mg/ml and pooling to a final peptide concentration of 400 μg per ml and a final DMSO concentration of 4%. After preparation, peptides were filtered with a 25 mm Pall PES filter (Cat#4612) and dispensed into Nunc Cryo vials (#375418) in one ml aliquots.
Three samples were prepared by mixing 0.75 ml of Pool3 with 0.25 ml Hiltonol® as planned for the dosage form preparation. The samples were then left at room temperature for 0, 4 and 6 hours and analyzed by RP-HPLC (Table 7). […] As slight increase in a second peak associated with peptide CS6919 was noted, increasing from 14% to 17% and 18% at 4 and 6 hours, respectively. […] Recovery of all peptides was above 90%, indicating no breakdown and loss of any peptides in the final dosage form after 6 hour room temperature incubation.

[3] = Solubility of peptides in DMSO/D5W/5 mM succinate formulation; conditions: pH 6

| Substance | pH of peptides in DMSO/D5W [1] | pH of peptides in DMSO/D5W/5mM S. Succinate spike [1] | pH of peptides in DMSO/D5W/5nnM Succinate and Hiltonol [1] | solubility [3] [µg/mL] | further results |
| --- | --- | --- | --- | --- | --- |
| H-KGASLDAGWGSPRWTTTRMTSASAGRSTRA-OH [CS7414] | 3.81 | 6.71 | 6.99 |  |  |
| H-DSAVDKGHPNRSALSLTPGLRIGPSGLFLVFLA-OH [CS7411] | 3.87 | 6.53 | 6.94 |  |  |
| H-AHRQGEKQHLLPVFSRLALRLPWRHSVQL-OH [CS6941] | 3.92 | 6.49 | 6.78 |  | % Impurity ([2]; Pool 3 + Hiltonol, 4 Hours RT): 0%; % Purity ([2]; Pool 3 + Hiltonol, 4 Hours RT): 100%; Main Peak ([2]; Pool 3 + Hiltonol, 4 Hours RT): 6676.54; Total Impurities ([2]; Pool 3 + Hiltonol, 4 Hours RT): 0; Total Peak ([2]; Pool 3 + Hiltonol, 4 Hours RT): 6676.54; % Impurity ([2]; Pool 3 + Hiltonol, 6 Hours RT): 0%; % Purity ([2]; Pool 3 + Hiltonol, 6 Hours RT): 100%; Main Peak ([2]; Pool 3 + Hiltonol, 6 Hours RT): 7158.29; Total Impurities ([2]; Pool 3 + Hiltonol, 6 Hours RT): 0; Total Peak ([2]; Pool 3 + Hiltonol, 6 Hours RT): 7158.29; % Impurity ([2]; T0 Pool 3 + Hiltonol, RP-HPLC): 0%; % Purity ([2]; T0 Pool 3 + Hiltonol, RP-HPLC): 100%; Main Peak ([2]; T0 Pool 3 + Hiltonol, RP-HPLC): 7140.91; Total Impurities ([2]; T0 Pool 3 + Hiltonol, RP-HPLC): 0; Total Peak ([2]; T0 Pool 3 + Hiltonol, RP-HPLC): 7140.91 |
| H-YLLPKTAVVLRCPALRVRKP-OH [CS7418] | 3.98 | 6.76 | 6.96 |  |  |
| H-PETGEIQVKTFLDREQRESYELKV-OH |  |  |  | > 2000 |  |
| H-SKLPYPVAKSGKRALARGPAPTEKTPHSGAQLG-OH [CS6719] | 3.94 |  |  |  |  |
| H-LPVFIGNIAVNHAPVSLRPGLGLPPGAPPGTVP-OH [CS7438] | 4.24 | 6.78 | 6.96 |  |  |
| H-LCPASRALEEKKGNYVVTDHGS-OH |  |  |  | > 2000 |  |
| H-LLTDRNTSGTTFTLLGVSDYPELQVP-OH [CS7409] | 3.86 | 6.32 | 6.62 |  |  |
| H-KLAWRGRISSSGCPSMTSPPSPMFGMTLHT-OH [CS6919] | 4.38 | 6.74 | 6.99 |  | % Impurity ([2]; Pool 3 + Hiltonol, 4 Hours RT): 17% and 17.09%; % Purity ([2]; Pool 3 + Hiltonol, 4 Hours RT): 82.91%; Main Peak ([2]; Pool 3 + Hiltonol, 4 Hours RT): 7238.56; Total Impurities ([2]; Pool 3 + Hiltonol, 4 Hours RT): 1492.4; Total Peak ([2]; Pool 3 + Hiltonol, 4 Hours RT): 8730.96; % Impurity ([2]; Pool 3 + Hiltonol, 6 Hours RT): 18% and 18.14%; % Purity ([2]; Pool 3 + Hiltonol, 6 Hours RT): 81.86%; Main Peak ([2]; Pool 3 + Hiltonol, 6 Hours RT): 7688.89; Total Impurities ([2]; Pool 3 + Hiltonol, 6 Hours RT): 1703.9; Total Peak ([2]; Pool 3 + Hiltonol, 6 Hours RT): 9392.79; % Impurity ([2]; T0 Pool 3 + Hiltonol, RP-HPLC): 14% and 13.9%; % Purity ([2]; T0 Pool 3 + Hiltonol, RP-HPLC): 86.1%; Main Peak ([2]; T0 Pool 3 + Hiltonol, RP-HPLC): 7786.28; Total Impurities ([2]; T0 Pool 3 + Hiltonol, RP-HPLC): 1256.72; Total Peak ([2]; T0 Pool 3 + Hiltonol, RP-HPLC): 9043 |
| H-LDVLQRPLSPGNSEFLTATANYSK-OH |  |  |  | < 2000 |  |
| H-PIDTSKTDPTVLLFMESQYSQLGQD-OH |  |  |  | > 2000 |  |
| H-SHKLESIKEITNFKDAKQLL-OH |  |  |  | > 2000 |  |
| H-KKNITNLSRLVVRPDTDAVY-OH [CS7431] | 3.8 | 6.45 | 6.69 |  |  |
| H-VAGLAASGLHGSAWLVPGEQPVSGPHHGKQ-OH [CS6931] | 3.80 | 6.42 | 6.66 |  | % Impurity ([2]; Pool 3 + Hiltonol, 4 Hours RT): 3.02%; % Purity ([2]; Pool 3 + Hiltonol, 4 Hours RT): 96.98%; Main Peak ([2]; Pool 3 + Hiltonol, 4 Hours RT): 8523.53; Total Impurities ([2]; Pool 3 + Hiltonol, 4 Hours RT): 265.54; Total Peak ([2]; Pool 3 + Hiltonol, 4 Hours RT): 8789.07; % Impurity ([2]; Pool 3 + Hiltonol, 6 Hours RT): 3.21%; % Purity ([2]; Pool 3 + Hiltonol, 6 Hours RT): 96.79%; Main Peak ([2]; Pool 3 + Hiltonol, 6 Hours RT): 9387.81; Total Impurities ([2]; Pool 3 + Hiltonol, 6 Hours RT): 311.37; Total Peak ([2]; Pool 3 + Hiltonol, 6 Hours RT): 9699.18; % Impurity ([2]; T0 Pool 3 + Hiltonol, RP-HPLC): 2.16%; % Purity ([2]; T0 Pool 3 + Hiltonol, RP-HPLC): 97.84%; Main Peak ([2]; T0 Pool 3 + Hiltonol, RP-HPLC): 9014.82; Total Impurities ([2]; T0 Pool 3 + Hiltonol, RP-HPLC): 198.6; Total Peak ([2]; T0 Pool 3 + Hiltonol, RP-HPLC): 9213.42 |
| H-ETYSRSFYPEHSIKEWLIGMELVFV-OH |  |  |  | < 2000 |  |
| H-RGLHSQGLGRGRIAMAQTAGVLRSLEQEE-OH [CS6711] | 3.82 |  |  |  |  |
| H-AESAQRQGPLGGGEQSANEF-OH [CS7417] | 3.82 | 6.28 | 6.5 |  |  |
| H-LVDQWRWGVFSGHTPPSRYNFDWWY-OH |  |  |  | < 2000 |  |
| H-GTKALQLHSIAGRWPRMEPWVVESMSLGVP-OH [CS7415] | 3.91 | 6.61 | 6.81 |  |  |
| H-ASRALEEKKGNYVVTDHGSCVRA-OH |  |  |  | > 2000 |  |
| H-ESKLFGDPDEFSLAHLLEPFRQYYL-OH |  |  |  | < 2000 |  |
| H-LLTDRNTSGTTFTLLGVSDYPELQVPIPQAGLG-OH [CS7408] | 3.89 | 6.31 | 6.75 |  |  |
| H-VEQGHVRVGPDVVTHPAFLV-OH [CS7427] | 3.72 | 6.34 | 6.52 |  |  |

| Substance | pH of peptides in DMSO/D5W [1] | pH of peptides in DMSO/D5W/5mM S. Succinate spike [1] | pH of peptides in DMSO/D5W/5nnM Succinate and Hiltonol [1] | solubility [3] [µg/mL] | further results |
| --- | --- | --- | --- | --- | --- |
| H-VQLSIQDVIRRARLSTVPTAQRVALRSGWI-OH [CS7413] | 3.9 | 6.73 | 7.02 |  |  |
| H-DPNKYPVPENWLYKEAHQLFLE-OH |  |  |  | > 2000 |  |
| H-PLMQTELHQLVPEADPEEMA-OH [CS7430] | 3.95 | 6.23 | 6.37 |  |  |
| H-GALGAVGATKVPRNQDWLGVSRQLRTKA-OH |  |  |  | > 2000 |  |
| H-PIQVFYTKQPQNDYLHVALVSVFQIHQEAPSSQ-OH [CS6729] | 3.87 |  |  |  |  |
| H-AESAQRQGPNGGGEQSANEF-OH [CS7416] | 3.91 | 6.31 | 6.54 |  | % Impurity ([2]; Pool 3 + Hiltonol, 4 Hours RT): 2.56%; % Purity ([2]; Pool 3 + Hiltonol, 4 Hours RT): 97.44%; Main Peak ([2]; Pool 3 + Hiltonol, 4 Hours RT): 5669.85; Total Impurities ([2]; Pool 3 + Hiltonol, 4 Hours RT): 148.82; Total Peak ([2]; Pool 3 + Hiltonol, 4 Hours RT): 5818.67; % Impurity ([2]; Pool 3 + Hiltonol, 6 Hours RT): 2.1%; % Purity ([2]; Pool 3 + Hiltonol, 6 Hours RT): 97.9%; Main Peak ([2]; Pool 3 + Hiltonol, 6 Hours RT): 6197.48; Total Impurities ([2]; Pool 3 + Hiltonol, 6 Hours RT): 132.83; Total Peak ([2]; Pool 3 + Hiltonol, 6 Hours RT): 6330.31; % Impurity ([2]; T0 Pool 3 + Hiltonol, RP-HPLC): 2.35%; % Purity ([2]; T0 Pool 3 + Hiltonol, RP-HPLC): 97.65%; Main Peak ([2]; T0 Pool 3 + Hiltonol, RP-HPLC): 5988.42; Total Impurities ([2]; T0 Pool 3 + Hiltonol, RP-HPLC): 143.98; Total Peak ([2]; T0 Pool 3 + Hiltonol, RP-HPLC): 6132.4 |
| H-LAALCPASRALEEKKGNYVVTDH-OH |  |  |  | > 2000 |  |
| H-AVRSPGSPLILEVGSGSGAIS-OH |  |  |  | > 2000 |  |
| H-SLPKSFKRKIFVVSATKGVPAGNSD-OH |  |  |  | > 2000 |  |
| H-GTYLQGTASALSQSQERPPSVNRVPPSSPSSQE-OH [CS6725] | 3.95 |  |  |  |  |
| H-PPYPYSSPSLVLPTEPHTPKSLQQPGLPS-OH [CS6715] | 4.11 |  |  |  |  |
| H-ALSLTPGLRIGPSGLFLVFLAESAVDKGHPNRS-OH [CS7410] | 3.99 | 6.46 | 6.88 |  |  |
| H-KPKKVAGAATPKKSIKRTPKKVKKPATAAGTKK-OH [CS6717] | 4.65 |  |  |  |  |
| H-PAAGDFIRFRFFQLLRLERFF-OH |  |  |  | < 2000 |  |
| H-LRVFIGNIAVNHAPVSLRPGLGLPPGAPPGTVP-OH [CS7412] | 4.24 | 6.61 | 6.96 |  |  |
| H-VTLNDMKARQKALVRERERQLA-OH |  |  |  | > 2000 |  |
| H-SGQPAPEETVLFLGLLHGLLLILRRLRGG-OH [CS6937] | 3.87 | 6.51 | 6.76 |  |  |
| H-EPDQEAVQSSTYKDCNTLHLPTERFSPVR-OH [CS6710] | 3.65 |  |  |  |  |
| H-LPVFIGNIAVNHAPVSLRPGLGLPPGAPPLVVP-OH [CS6730] | 4.20 |  |  |  |  |
| H-LAALCPASRALEEKKGNYVVTDHGS-OH |  |  |  | > 2000 |  |
| H-WDGPPENDMLLKEICGSLIP-OH [CS7432] | 3.72 | 6.22 | 6.45 |  |  |
| H-HPEFANPDSMEYISDVVDEVIQN-OH |  |  |  | > 2000 |  |
| H-SKRGVGAKTLLLPDPFLFWPCLEGTRRSL-OH [CS6934] | 3.86 | 6.57 | 6.79 |  | % Impurity ([2]; Pool 3 + Hiltonol, 4 Hours RT): 3.06%; % Purity ([2]; Pool 3 + Hiltonol, 4 Hours RT): 96.94%; Main Peak ([2]; Pool 3 + Hiltonol, 4 Hours RT): 5842.22; Total Impurities ([2]; Pool 3 + Hiltonol, 4 Hours RT): 184.46; Total Peak ([2]; Pool 3 + Hiltonol, 4 Hours RT): 6026.68; % Impurity ([2]; Pool 3 + Hiltonol, 6 Hours RT): 3.41%; % Purity ([2]; Pool 3 + Hiltonol, 6 Hours RT): 96.59%; Main Peak ([2]; Pool 3 + Hiltonol, 6 Hours RT): 6268.16; Total Impurities ([2]; Pool 3 + Hiltonol, 6 Hours RT): 221.46; Total Peak ([2]; Pool 3 + Hiltonol, 6 Hours RT): 6489.62; % Impurity ([2]; T0 Pool 3 + Hiltonol, RP-HPLC): 3.83%; % Purity ([2]; T0 Pool 3 + Hiltonol, RP-HPLC): 96.17%; Main Peak ([2]; T0 Pool 3 + Hiltonol, RP-HPLC): 6147.14; Total Impurities ([2]; T0 Pool 3 + Hiltonol, RP-HPLC): 244.49; Total Peak ([2]; T0 Pool 3 + Hiltonol, RP-HPLC): 6391.63 |
| H-IGALNPKRAAFFAEHYESWE-OH [CS7420] | 3.84 | 6.38 | 6.56 |  |  |
